From patent US7476670B2, “Purine derivatives, method for preparing, pharmaceutical compositions and novel use” (Aventis Pharma S.A., priority 2003, dated 2009)

Legend:
Assay type in all cases: biochemical
CAN Kinase II = assay: Assay for inhibition for CAN kinase II activity; details: [33P]ATP, calmodulin
Procedure: The inhibition of the kinase activity is determined by. measuring the phosphorylation of its substrate peptide.
The assay is carried out in a final volume of 50 μl.
The incubation buffer is as follows:
• 20 mM MOPS pH 7.4 • 5 mM MgCl2 • 5 mM CaCl2 • 1 mM DTT • 100 μM Na2VO4 • 25 mM Beta-glycerophosphate 5 μl of the 10-times concentrated inhibitor are added to 25 μl of incubation buffer containing 0.2 μg/μl final concentration of the enzyme (Tebu, SE-134); 10 μl of incubation buffer containing 5 μM final concentration of substrate and 1600 U/ml final concentration of calmodulin are then added and, finally, 10 μl of incubation buffer containing 20 μM ATP and radiolabeled ATP, [^33P]ATP (0.05 μCi), are added. The reaction is stopped after incubation for 40 minutes at ambient temperature. • Results obtained expressed as percentage inhibition at 20 μM • Example 30 98% 9) Assay for Inhibition of EGF tyr Kinase Activity

GSK3beta = GSK3beta (Homo sapiens, UniProt P49841); assay: Assay for inhibition of GSK3beta activity; details: [33P]ATP; read-out: IC50s expressed as micromolar
Procedure: The inhibition of the kinase activity is determined by measuring the phosphorylation of its substrate peptide.
The assay is carried out in a final volume of 40 μl; all the reagents are prepared in a buffer: • 50 mM HEPES pH 7.5 • 0.03% triton X100 • 10 mM MgCl2 • 5% Glycerol • 1 mM DTT 10 μl of the 10-times concentrated inhibitor are added to 5 μl of enzyme (20 ng final concentration), and 5 μl of peptide (1 μM final concentration) then 2.5 μof incubation buffer containing 16 μM ATP and 2.5 μl of radiolabeled ATP, [^33P]ATP (50 nCi) are added. After incubation for 15 minutes at ambient temperature, 10 μl of incubation buffer containing 1 μM of substrate.

JNK3 kinase = JNK3 kinase (Homo sapiens, UniProt P53779); assay: Assay for inhibition of JNK3 activity; details: fluorescence polarization, ATP 6 μM; read-out: IC50s expressed as micromolar
Procedure: The inhibition of the kinase activity is determined by fluorescence polarization, the JNK3 kinase phosphorylates a peptide detected by adding an anti-phosphopeptide antibody coupled to a fluorescent label.
(§1) The assay is carried out in a final volume of 30 μl; all the reagents are prepared in a buffer: • 50 mM HEPES pH 7.5 • 0.03% triton X100 • 10 mM MgCl2 • 5% Glycerol • 1 mM DTT 10 μl of the 10-times concentrated inhibitor are added to 5 μl of enzyme (40 ng final concentration), and 5 μl of incubation buffer containing 100 ng of substrate and 10 μl of ATP (6 μM final concentration) are added.

AKT kinase = AKT kinase (Homo sapiens, UniProt P31749); assay: Assay for inhibition of AKT activity; details: fluorescence polarization, ATP 80 μM; read-out: IC50s expressed as micromolar
Procedure: The inhibition of the kinase activity is determined by fluorescence polarization, the AKT kinase phosphorylates a peptide detected by adding an anti-phosphopeptide antibody coupled to a fluorescent label.
as §1, with “(20” for “(40”, “peptide (1 μM final concentration)” for “incubation buffer containing 100 ng of substrate”, “(80 μM.” for “(6 μM”

AKT kinase, sequence (P31749 whole entry): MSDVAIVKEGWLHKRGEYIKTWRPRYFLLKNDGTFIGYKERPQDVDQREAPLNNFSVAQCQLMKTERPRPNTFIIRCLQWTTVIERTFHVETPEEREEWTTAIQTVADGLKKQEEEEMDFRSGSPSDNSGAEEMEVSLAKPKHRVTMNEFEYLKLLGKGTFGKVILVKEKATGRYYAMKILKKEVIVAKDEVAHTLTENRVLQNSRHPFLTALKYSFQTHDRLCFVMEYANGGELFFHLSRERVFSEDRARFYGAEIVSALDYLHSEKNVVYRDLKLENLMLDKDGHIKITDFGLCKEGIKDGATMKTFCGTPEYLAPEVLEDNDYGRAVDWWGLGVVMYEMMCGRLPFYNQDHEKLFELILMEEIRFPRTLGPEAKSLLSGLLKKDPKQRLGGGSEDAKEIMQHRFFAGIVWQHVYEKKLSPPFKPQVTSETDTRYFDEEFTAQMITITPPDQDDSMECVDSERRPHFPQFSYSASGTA
GSK3beta, sequence (P49841 whole entry, species assumed): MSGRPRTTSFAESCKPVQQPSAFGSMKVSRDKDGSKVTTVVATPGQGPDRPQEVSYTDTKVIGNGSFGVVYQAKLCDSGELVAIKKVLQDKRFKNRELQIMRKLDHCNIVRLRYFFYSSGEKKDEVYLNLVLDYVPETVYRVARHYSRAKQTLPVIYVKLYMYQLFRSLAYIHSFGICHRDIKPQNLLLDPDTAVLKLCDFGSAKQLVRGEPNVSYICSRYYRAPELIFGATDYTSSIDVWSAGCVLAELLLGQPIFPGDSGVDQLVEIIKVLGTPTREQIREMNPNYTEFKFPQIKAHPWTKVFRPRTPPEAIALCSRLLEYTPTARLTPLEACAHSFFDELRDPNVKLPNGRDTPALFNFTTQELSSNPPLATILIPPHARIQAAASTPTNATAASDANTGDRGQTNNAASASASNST
JNK3 kinase, sequence (P53779 whole entry): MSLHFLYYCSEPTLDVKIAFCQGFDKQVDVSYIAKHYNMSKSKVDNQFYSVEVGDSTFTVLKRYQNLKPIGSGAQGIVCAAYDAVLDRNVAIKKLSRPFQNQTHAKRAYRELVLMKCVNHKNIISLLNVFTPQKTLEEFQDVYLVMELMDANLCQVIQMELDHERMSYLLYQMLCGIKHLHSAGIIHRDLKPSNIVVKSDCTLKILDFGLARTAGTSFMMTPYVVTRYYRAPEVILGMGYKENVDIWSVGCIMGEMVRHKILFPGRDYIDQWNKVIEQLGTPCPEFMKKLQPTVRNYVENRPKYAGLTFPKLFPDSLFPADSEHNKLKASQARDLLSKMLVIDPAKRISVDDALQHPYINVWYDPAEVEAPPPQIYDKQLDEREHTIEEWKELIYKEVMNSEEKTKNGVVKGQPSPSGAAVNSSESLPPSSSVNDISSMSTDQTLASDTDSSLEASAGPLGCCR

## Cl.Cl.N[C@H]1CC[C@H](Nc2nc(N3CCc4cc([N+](=O)[O-])ccc43)c3nc[nH]c3n2)CC1 [Example 30, Trans-N-[6-(2,3-dihydro-5-nitro-1H-indol-1-yl)-9H-purin-2-yl]-1,4-cyclohexanediamine dihydrochloride]
CAN Kinase II
  percentage inhibition at 20 μM: 98%
GSK3beta
  IC50: 1.5 µM

## Cl.N[C@H]1CC[C@H](Nc2nc(-n3cnc4cc(Cl)c(Cl)cc43)c3nc[nH]c3n2)CC1 [Example 8, Trans-N-[6-(5,6-dichloro-1H-benzimidazol-1-yl)-9H-purin-2-yl]-1,4-cyclohexanediamine hydrochloride]
JNK3 kinase
  IC50: 0.84 µM
AKT kinase
  IC50: 0.46 µM
